Data reported in patent publication US11674951B2, “Methods for identifying a treatment for rheumatoid arthritis” (The Brigham and Women's Hospital, Inc., priority 2017, dated 2023).
Several values for one entry are separate records, joined by “and”; a condition that tells them apart may be missing. Equal values may be shown once.

What was measured:
active RA patients = assay: Clinical response of active RA patients (CPIRA study) by Clinical Disease Activity Index (CDAI); format: in vivo, human; parameters: key to 2nd visit CDAI / ΔCDAI: CDAI = SJC(28)+TJC(28)+PGA+EGA; PGA/EGA on 1-10, 10 = maximal activity; settings: for ΔCDAI: 1st visit minus 2nd visit CDAI; for 2nd visit CDAI: 12 weeks after the treatment started; for number of treated subjects who did not respond (CDAI definition) / number of treated subjects who responded (CDAI definition): seven CPIRA subjects treated per drug
From the text: The Clinical Disease Activity Index (CDAI) is a useful clinical composite score for patients with rheumatoid arthritis. In some embodiments, it can be determined by the following formula: CDAI=SJC(28)+TJC(28)+PGA+EGA, wherein SJC(28) is Swollen 28-Joint Count (shoulders, elbows, wrists, MCPs, PIPs including thumb IP, knees), TJC(28) is Tender 28-Joint Count (shoulders, elbows, wrists, MCPs, PIPs including thumb IP, knees), PGA is Patient Global disease Activity (patient's self assessment of overall RA disease activity on a scale 1-10 where 10 is maximal activity), and EGA is Evaluator's Global disease Activity (evaluator's assessment of overall RA disease activity on a scale 1-10 where 10 is maximal activity). In some embodiments, a subject with an RA can have a CDAI that is equal to or greater than 5, 10, 15, or 20. In some embodiments, the subject has an active RA, and a subject with an active RA can have a CDAI that is equal to or greater than 10. A CDAI that is equal to or greater than 10 often indicates moderate or severe RA.
Active RA patients were recruited through the Central Pain in Rheumatoid Arthritis (CPIRA) study. The PBMC were collected from active RA patients at the time when they switched or started a new RA treatment and were also collected 12 weeks after the treatment started.
PBMC collected from 14 CPIRA subjects before they started either etanercept or adalimumab were analyzed (Table 1). Seven of the […] subjects were treated by etanercept.
The responsiveness to treatment was determined by the following definition.
CDAI decrease>=12 for those with baseline CDAI>22,
CDAI decrease>=6 for those with baseline CDAI>=10,
CDAI decrease>=1 for those with baseline CDAI<10.

[1] = system: PTPN22 transcripts in PBMC; assay: Anti-CD3 antibody induced PTPN22 transcript level in PBMC in absence or presence of drug (RT-PCR, drug/no-drug ratio); format: cell-based, human; settings: anti-CD3 2.5 ug/ml, 24 hours
Description: PBMCs (1 million cells) of these subjects that were collected before the treatment were stimulated in vitro with anti-CD3 antibodies (2.5 ug/ml) in the absence or presence of corresponding drug (etanercept 250 ug/ml, adalimumab 100 ug/ml) for 24 hours. PBMC from subject BW34 was tested separately with etancercept and adalimumab. RNA was harvested from the stimulated cells and the level of PTPN22 transcripts was quantified with RT-PCR.
The PTPN22 level from cells stimulated in the presence of drug was then divided by the level obtained from cells stimulated in the absence of drug. This drug/no-drug ratio calculated from the 9 drug responders ranged from 1.67 to 2.5, whereas the ratio calculated from the 6 drug non-responders ranged from 0.86 to 1.35 (FIG. 4 and Table 1). […]

[2] = adalimumab non-responders, one value per subject: BW34, BW83
[3] = adalimumab responders, one value per subject: BW32, BW57, BW85, BW89, BS137
[4] = etanercept non-responders, one value per subject: BW53, BW80, BW116
[5] = etanercept responders, one value per subject: BW39, BW56, BW82, BW110

| Substance | ΔCDAI (active RA patients; [2]) | 2nd visit CDAI (active RA patients; [2]) | ΔCDAI (active RA patients; [3]) | 2nd visit CDAI (active RA patients; [3]) | number of treated subjects who did not respond (CDAI definition) (active RA patients) | number of treated subjects who responded (CDAI definition) (active RA patients) | PTPN22 Drug/no-drug ratio ([1]; PBMC of adalimumab non-responders collected before treatment, adalimumab 100 ug/ml, one value per subject: BW34, BW83) | PTPN22 Drug/no-drug ratio ([1]; PBMC of adalimumab responders collected before treatment, adalimumab 100 ug/ml, one value per subject: BW32, BW57, BW85, BW89, BS137) | ΔCDAI (active RA patients; [4]) | 2nd visit CDAI (active RA patients; [4]) | ΔCDAI (active RA patients; [5]) | 2nd visit CDAI (active RA patients; [5]) | PTPN22 Drug/no-drug ratio ([1]; PBMC of etanercept non-responders collected before treatment, etanercept 250 ug/ml, one value per subject: BW53, BW80, BW116, BW34*) | PTPN22 Drug/no-drug ratio ([1]; PBMC of etanercept responders collected before treatment, etanercept 250 ug/ml, one value per subject: BW39, BW56, BW82, BW110) |
| --- | --- | --- | --- | --- | --- | --- | --- | --- | --- | --- | --- | --- | --- | --- |
| adalimumab | 4.8 and 1 | 24.2 and 13 | 15.2 and 10 and 21 and 23 and 13 | 0 and 9 and 25 and 34 and 18 | two | five | 1.17 and 0.93 | 1.82 and 1.77 and 1.97 and 2.37 and 1.67 |  |  |  |  |  |  |
| etanercept |  |  |  |  | three | Four |  |  | 1.5 and −0.5 and 6 | 25.5 and 21.5 and 23 | 12.5 (2×) and 9 and 23 | 0 and 6.5 and 6 and 12 | 0.86 and 1.18 and 1.23 and 1.35 | 2.14 and 2.04 and 1.82 and 2.5 |
